# From patent US20170157112A1, “HIF INHIBITORS” (UCL BUSINESS PLC, priority 2013, published 2017)
# pIC50: −log10 of the molar value. Where two headings read alike, the source gives them in different places.
# Legend:
# [1] = system: HIF activity; test: U2OS-HRE-luc cell-based HRE-luciferase reporter assay; settings: for inhibition of luciferase activity in U2OS-HRE cells: 1 μM, 1% O2 for 16 hours
# Experimental: Cells were harvested and luciferase activity was measured in cell lysates using a standard luminometer. Data was represented as relative light units (RLU) for each condition.
# (§1) Tubulin was used as a loading control.
# [2] = system: HIF-2α; test: Western blot of HIF-2α protein induction in hypoxia; assay type: cell-based; settings: 1 μM
# Experimental: (§2) U2OS-HRE-luc described in A, were harvested for western blot analysis. FIG. 1B: Western blots show the effects of HIF-Inhib1 on HIF-1α protein in normoxia or hypoxia. Actin was used as a load control. FIG. 1C: Western blots show HIF-1α, phosphorylated ERK1/2 (ERK1/2-P), and AKT/PKB proteins in the absence (−) and presence of 1 μM HIF-Inhib1 in normoxia (norm) or hypoxia (hyp). Actin was used as a load control. FIG. 1D: Western blots show the effects of HIF-Inhib1 (1 μM) on HIF-2α protein levels. UT (untreated), and DMSO treated (−) controls are indicated;
# [3] = system: ERK1/2 and AKt/PKB; test: Western blot of cellular signaling proteins ERK1/2 and AKt/PKB; assay type: cell-based; settings: 1 μM, normoxia or hypoxia
# Experimental: as §2
# [4] = system: VEGF; test: VEGF protein by quantitative ELISA in U2OS-HRE-luc cells; assay type: cell-based
# Experimental: (§3) Cells were harvested and assessed for VEGF and GLUT1 protein levels using a quantitative ELISA or by western blot analysis respectively. In addition, tumour cells were exposed to 0.5 or 2.5 μM HIF-Inhib1 in hypoxia, and tumour cell migration was measured using a 2-dimensional filter-based migration assay.
# [5] = system: GLUT1; test: GLUT1 protein by western blot in U2OS-HRE-luc cells; assay type: cell-based; settings: 0.1-1 μM, hypoxia 16 hours
# Experimental: as §3
# [6] = system: eIF-2α phosphorylation; test: Western blot of eIF-2α phosphorylation in U2OS-HRE-luc cells; assay type: cell-based; settings: for eIF-2α phosphorylation (western blot): dose range, normoxia or hypoxia 16 hours
# Experimental: Cells were harvested and components of the protein translational machinery were assessed by western blot analysis.
# as §1
# [7] = system: panel of tumour cell lines; test: Growth inhibition / toxicity on tumour cell lines; assay type: cell-based
# [8] = PK by LCMS in PC3LN5 subcutaneous xenograft mice; assay type: in vivo; settings: for concentration at 24 h: intraperitoneal
# Experimental: HIF-Inhib1 was administered IP dose of 100 mg·kg^−1 to Nu mice with PC3LN5 xenografts. Mice were killed at 24 h and xenografts removed for PD/PK analysis. Tumour samples were homogenised with 3× (v/w) PBS and 50 μL extracted by addition of 150 μL of methanol. Tumour extracts were analysed by LCMS using reverse-phase Synergi Polar-RP (Phenomenx, 50×2.1 mm) analytical column and positive ion mode ESI+ MRM.
# [9] = system: PC3LN5 orthotopic xenograft; test: PC3LN5 orthotopic mouse xenograft model: tumour growth, metastasis, body weight, PK; assay type: in vivo, mice
# Experimental: (§4) PC3LN5 (10^5 cells) were implanted intraprostatically into mice (Nu) and tumours were allowed to develop for 12 days. Mice received HIF-Inhib1 (75 mg·kg^−1) by IP injection daily for 2.5 weeks. Plasma and tumour samples were taken 24 h after the last dose and analysed by LCMS. Tumours were excised and homogenised, and assessed for PD endpoints HIF-1α and VEGF proteins. Local and distant lymph node metastases were also evaluated.
# [10] = system: VEGF; test: PD endpoint VEGF protein in PC3LN5 orthotopic tumours; assay type: in vivo, mice; settings: 75 mg/kg IP daily
# Experimental: as §4
# [11] = system: HIF activity and HIF-α expression; test: HIF activity and HIF-α expression in several cancer cell lines; assay type: cell-based
# [12] = Tolerability of daily IP dosing in mice; settings: mouse, in vivo
# [13] = PC3LN5 orthotopic xenograft, 75 mg/kg IP daily
smiles,measurement,setting,value
CCC1=C(CC2c3ccc(OC)cc3CCN2S(C)(=O)=O)CC2c3ccccc3CCN2C1 (racemic) [UCL-ONY-004],inhibition of luciferase activity in U2OS-HRE cells,[1],inactive
CCC1=C(CC2NCCc3cc(OC)c(OC)cc32)CC2c3ccccc3CCN2C1 (stereo not drawn) [Compound I],"HIF activity (HRE-luciferase activity, RLU)","[1]; 0.1-1 μM, hypoxia (1% O2) 16 hours",blocks HIF activity
same,pIC50,[1]; read-out: IC50 for inhibiting HIF activity,~6.30
same,HIF-2α protein induction in hypoxia,[2],blocks HIF-2α protein induction in hypoxia
same,expression of key cellular signaling proteins ERK1/2 and AKt/PKB,[3],no significant effect
same,induction of HIF target protein VEGF,"[4]; 0.1-1 μM, hypoxia 16 hours, ELISA",blocks the induction
same,potency in blocking VEGF induction in hypoxia,[4]; hypoxia,250 to 500 nM
same,induction of HIF target protein GLUT1,[5],blocks the induction
same,potency in blocking eIF-2α phosphorylation,[6],250 to 500 nM
same,eIF-2α phosphorylation (western blot),[6],block eIF-2α phosphorylation
same,eIF-2α phosphorylation (western blot),[6]; listed as HIF-Inhib1,blocked eIF-2α phosphorylation in a dose-dependent manner
same,concentrations inhibiting growth of a panel of tumour cell lines,[7],submicromolar
same,bioavailability in vivo,"[8]; 100 mg/kg IP, PC3LN5 xenograft mice",Good Bioavailability
same,pharmacokinetic properties in vivo,"[8]; mouse, in vivo",favourable pharmacokinetic properties
same,concentration at 24 h,"[8]; mouse, plasma, 100 mg/kg IP, Nu mice with PC3LN5 xenografts, read-out: Plasma concentrations",70 to 300 nM
same,concentration at 24 h,"[8]; mouse, tumour (PC3LN5 subcutaneous xenograft), 100 mg/kg IP, PC3LN5 subcutaneous xenografts, Nu mice, LCMS, read-out: Tumour concentrations",1900 to 35000 nM
same,PK profile in tumours,"[9]; 75 mg/kg IP daily, 24 h after last dose, LCMS",good PK profile
same,Mouse body weight,"[9]; 16 days of daily dosing, 75 mg/kg IP",not significantly affected
same,metastasis (local and distant lymph nodes),[9]; [13],significantly blocked
same,tumour growth,[9]; [13],significantly blocked
same,VEGF protein in PC3LN5 orthotopic tumours,[10],blocked
same,HIF activity and HIF-α expression in response to hypoxia and growth factors,[11],inhibits both HIF activity and HIF-α expression
same,MTD,[12],≤ 100 mg/kg
CCC1=C(C[C@@H]2NCCc3cc(OC)c(OC)cc32)C[C@@H]2c3ccccc3CCN2C1 [UCL-ONY-002],inhibition of luciferase activity in U2OS-HRE cells,[1],inactive
CCC1=C(C[C@@H]2NCCc3cc(OC)c(OC)cc32)C[C@H]2c3ccccc3CCN2C1 [UCL-ONY-003],inhibition of luciferase activity in U2OS-HRE cells,[1],inactive
"CC[C@H]1CN2CCc3cc(OC)c(OC)cc3[C@@H]2C[C@@H]1C[C@H]1NCCc2cc(OC)c(OC)cc21 [emetine, reference compound]",HIF activity (relative light units),"[1]; emetine 0.017 uM, hypoxia (1% O2) 16 hours",significantly blocked HIF activity
same,eIF-2α phosphorylation (western blot),[6],blocks eIF-2α phosphorylation
